One molecule from publication PMC12175890 (Science Advances, 2025) can be followed below.

The target in this assay is T1, BdPAPT-CD (Babesia duncani, UniProt A0AAD9PLN9).
T1 sequence (A0AAD9PLN9 301-734): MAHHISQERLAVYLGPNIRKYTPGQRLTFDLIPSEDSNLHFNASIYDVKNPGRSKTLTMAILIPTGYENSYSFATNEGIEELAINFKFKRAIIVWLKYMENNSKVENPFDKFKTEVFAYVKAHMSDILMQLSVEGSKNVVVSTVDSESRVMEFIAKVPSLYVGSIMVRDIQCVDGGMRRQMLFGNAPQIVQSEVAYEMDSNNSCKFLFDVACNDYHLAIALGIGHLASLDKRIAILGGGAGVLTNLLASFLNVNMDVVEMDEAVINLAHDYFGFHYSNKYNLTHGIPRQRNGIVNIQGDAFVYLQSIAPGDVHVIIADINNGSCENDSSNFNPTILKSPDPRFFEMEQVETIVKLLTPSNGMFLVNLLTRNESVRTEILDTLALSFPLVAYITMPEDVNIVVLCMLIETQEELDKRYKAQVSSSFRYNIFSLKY
Nature of the assay: TLC of spermidine formation. Type of assay: biochemical. Conditions: 0.1 mM dcSAM, 0.1 mM putrescine, 37 °C, potassium phosphate pH 7.5.

On to `NCCCCN` [PUT], for which the “TLC of spermidine formation” value was “efficient conversion of PUT to SPD by BdPAPT-Cterm and its CD”.
